Data published in US9409952B2, “Peptide-compound cyclization method” (Chugai Seiyaku Kabushiki Kaisha, priority 2011, dated 2016).
Where two headings read alike, the source gives them in different places. Starred links: 1 amine or outer side, 2 acyl side, 3 side chain; linkers in the order of their positions; H or OH if unused. Positions of bridges follow the written chain, without caps; N, C: chain ends. Non-standard residues stand in square brackets, D forms with d. Residues, ends and D or L forms follow the SMILES beside them. ξ: configuration not given here. *: point of attachment. Phe(4-(CH2)5CO) = O=C([C@H](Cc1ccc(CCCCCC(=O)[*:3])cc1)N[*:1])[*:2]; Phe(3-(CH2)4CO) = O=C([C@H](Cc1cccc(CCCCC(=O)[*:3])c1)N[*:1])[*:2]; NMeF = CN[C@@H](Cc1ccccc1)C(=O)O; NMeI = CC[C@H](C)[C@H](NC)C(=O)O; hPhe = N[C@@H](CCc1ccccc1)C(=O)O; NMeβAla = CN(CCC(=O)[*:2])[*:1]; NMeL = CN[C@@H](CC(C)C)C(=O)O; Ala(CN) = N#CC[C@H](N)C(=O)O; NMeV = CN[C@H](C(=O)O)C(C)C; NMeA = CN[C@@H](C)C(=O)O; Piperidide = C1CCN(*)CC1; ξF = NC(Cc1ccccc1)C(=O)O; Aze = O=C(O)[C@@H]1CCN1; ξL = CC(C)CC(N)C(=O)O; NPrGly = CCCNCC(=O)O; Sar = CNCC(=O)O; tBu = CC(C)(C)*

Experiment: Metabolic stability in human hepatic microsome
Format: in vitro ADME
[1] = human, microsomes, pH 7.4, CL NADPH(+)
[2] = microsomes, pH 7.4, human hepatic microsome, NADPH(+), read-out: CL NADPH(+)

| SMILES | microsomal CLint at 1 uM [2] | also measured |
| --- | --- | --- |
| CC[C@H](C)[C@@H]1NC(=O)[C@@H]2CCCN2C(=O)CNC(=O)[C@H](COC(C)(C)C)NC(=O)[C@H](CC(C)C)N(C)C(=O)C(Cc2ccccc2)NC(=O)CN(C)C(=O)C[C@@H](C(=O)N2CCCCC2)NC(=O)[C@H](CC(C)C)N(C)C(=O)[C@H](Cc2ccccc2)NC(=O)[C@H]([C@@H](C)O)NC(=O)[C@H](C)N(C)C1=O (stereo partly drawn) [DP-517] ([Sar][ξF][NMeL]S(tBu)GPI[NMeA]TF[NMeL]D-Piperidide; lactam N-12) |  | microsomal CLint at 1 uM [1]: 31 µL/min/mg |
| CC[C@H](C)[C@@H]1NC(=O)[C@H](Cc2ccccc2)N(C)C(=O)[C@H](Cc2ccccc2)NC(=O)[C@H](C(C)C)N(C)C(=O)[C@H](CC(C)C)N(C)C(=O)[C@H](CC(C)C)NC(=O)[C@H](C)NC(=O)C[C@@H](C(=O)N2CCCCC2)NC(=O)[C@H]([C@@H](C)O)NC(=O)CNC(=O)[C@@H]2CCCN2C1=O [DP-14] (AL[NMeL][NMeV]F[NMeF]IPGTD-Piperidide; lactam N-11) |  | microsomal CLint at 1 uM [1]: 57 µL/min/mg |
| CC[C@H](C)[C@@H]1NC(=O)[C@H](C)NC(=O)C[C@@H](C(=O)N2CCCCC2)NC(=O)[C@@H]2CCCN2C(=O)C(CC(C)C)NC(=O)[C@H](Cc2ccccc2)N(C)C(=O)[C@H]([C@@H](C)O)NC(=O)[C@H](Cc2ccccc2)N(C)C(=O)[C@H](C)N(C)C1=O (stereo partly drawn) [DP-34] (AI[NMeA][NMeF]T[NMeF][ξL]PD-Piperidide; lactam N-9) |  | microsomal CLint at 1 uM [1]: 102 µL/min/mg |
| CC[C@H](C)[C@H](NC(=O)[C@H](CC(C)C)N(C)C(=O)[C@H](Cc1ccccc1)N(C)C(=O)[C@@H]1CC(=O)N(C)[C@@H](C)C(=O)N[C@@H](C(C)C)C(=O)N[C@@H](C)C(=O)N[C@@H](CC(C)C)C(=O)N(C)[C@@H](Cc2ccccc2)C(=O)N[C@@H](CC(C)C)C(=O)N[C@@H]([C@@H](C)O)C(=O)N1)C(=O)N1CCCCC1 [DP-932] ([NMeA]VAL[NMeF]LTD[NMeF][NMeL]I-Piperidide; lactam N-8) | 108 µL/min/mg |  |
| CC(C)C[C@H]1C(=O)N(C)[C@@H](Cc2ccccc2)C(=O)N[C@@H](C)C(=O)N2CCC[C@H]2C(=O)N(C)[C@@H](CC(C)C)C(=O)N(C)[C@@H](Cc2ccccc2)C(=O)N(C)[C@@H](C(C)C)C(=O)N[C@H](C(=O)N2CCCCC2)CC(=O)N[C@H](C)C(=O)N[C@@H]([C@@H](C)O)C(=O)N(C)CC(=O)N1C [DP-141] ([dA]T[Sar][NMeL][NMeF]AP[NMeL][NMeF][NMeV]D-Piperidide; lactam N-11) | 77 µL/min/mg |  |
| CC[C@H](C)[C@H]1C(=O)NCC(=O)N(C)[C@@H](CC(C)C)C(=O)N[C@@H]([C@@H](C)O)C(=O)N2CC[C@H]2C(=O)N[C@@H](Cc2ccccc2)C(=O)N[C@H](C(=O)N2CCCCC2)CC(=O)N(C)[C@@H](C)C(=O)N[C@@H](Cc2ccccc2)C(=O)N(C)[C@@H](CC(C)C)C(=O)N[C@@H](CC(C)C)C(=O)N1C [DP-558] ([NMeA]F[NMeL]L[NMeI]G[NMeL]T[Aze]FD-Piperidide; lactam N-11) | 133 µL/min/mg |  |
| CC[C@H](C)[C@H]1C(=O)N[C@@H](C)C(=O)N[C@H](C(=O)N2CCCCC2)CC(=O)N[C@@H](C)C(=O)N[C@@H]([C@@H](C)O)C(=O)N(C)[C@@H](CC(C)C)C(=O)N[C@@H](CC(C)C)C(=O)N[C@@H](Cc2ccccc2)C(=O)N2CCC[C@H]2C(=O)N[C@@H](Cc2ccccc2)C(=O)N[C@@H](C(C)C)C(=O)N(C)CC(=O)N1C [DP-6] (AT[NMeL]LFPFV[Sar][NMeI]AD-Piperidide; lactam N-12) |  | microsomal CLint at 1 uM [1]: 35 µL/min/mg |
| CC[C@H](C)[C@@H]1NC(=O)[C@H](CC(C)C)N(C)C(=O)[C@H](Cc2ccccc2)NC(=O)[C@H](CC(C)C)N(C)C(=O)[C@H](CC(C)C)NC(=O)[C@H](Cc2ccccc2)NC(=O)[C@H]([C@@H](C)O)NC(=O)[C@H](C)N(C)C(=O)[C@H](CC(C)C)NC(=O)CCN(C)C(=O)C[C@@H](C(=O)N2CCCCC2)NC1=O [DP-325] ([NMeβAla]L[NMeA]TFL[NMeL]F[NMeL]ID-Piperidide; lactam N-11) | 99 µL/min/mg |  |
| CC[C@H](C)[C@H]1C(=O)NCC(=O)N2CC[C@H]2C(=O)N[C@@H]([C@@H](C)O)C(=O)N2CCC[C@H]2C(=O)N[C@@H](Cc2ccccc2)C(=O)N[C@H](C(=O)N2CCCCC2)CC(=O)N(C)[C@@H](C)C(=O)N[C@@H](Cc2ccccc2)C(=O)N(C)[C@@H](CC(C)C)C(=O)N[C@@H](CC(C)C)C(=O)N1C [DP-556] ([NMeA]F[NMeL]L[NMeI]G[Aze]TPFD-Piperidide; lactam N-11) | 65 µL/min/mg |  |
| CC(C)C[C@H]1C(=O)N[C@@H](COC(C)(C)C)C(=O)N[C@H](C(=O)N2CCCCC2)CC(=O)N(C)[C@@H](C)C(=O)N(C)[C@@H](C)C(=O)N(C)[C@@H](Cc2ccccc2)C(=O)N(C)[C@@H](CC(C)C)C(=O)N[C@@H]([C@@H](C)O)C(=O)N(C)CC(=O)N1C [Compound P-120, MeAla-MeAla-MePhe-MeLeu-Thr-MeGly-MeLeu-Ser(tBu)-Asp-piperidine] ([NMeA][NMeA][NMeF][NMeL]T[Sar][NMeL]S(tBu)D-Piperidide; lactam N-9) |  | Hepatic microsome CLhint (Human) In the absence of NADPH: 5 ul/min/mg Protein |
| CCCN1CC(=O)N(C)[C@@H](Cc2ccccc2)C(=O)N[C@@H](C)C(=O)N(C)[C@@H](Cc2ccccc2)C(=O)N(C)[C@@H](CC(C)C)C(=O)N(C)[C@@H]([C@@H](C)CC)C(=O)N(C)[C@@H](CC(C)C)C(=O)N[C@H](C(=O)N2CCCCC2)Cc2cccc(c2)CCCCC(=O)N[C@@H](CC(C)C)C(=O)N[C@@H]([C@@H](C)O)C1=O [DP-867] (LT[NPrGly][NMeF]A[NMeF][NMeL][NMeI][NMeL][Phe(3-(CH2)4CO)]-Piperidide; lactam N-10) | 211 µL/min/mg |  |
| CC[C@H](C)[C@H](NC(=O)[C@H](CC(C)C)NC(=O)[C@H](CC(C)C)N(C)C(=O)[C@@H]1CC(=O)N[C@H](C(C)C)C(=O)N[C@@H](CC(C)C)C(=O)N(C)[C@@H](CC(C)C)C(=O)N[C@@H]([C@@H](C)O)C(=O)N[C@@H](C(C)C)C(=O)N(C)[C@@H](CC(C)C)C(=O)N(C)[C@@H](Cc2ccccc2)C(=O)N1)C(=O)N1CCCCC1 [DP-933] ([dV]L[NMeL]TV[NMeL][NMeF]D[NMeL]LI-Piperidide; lactam N-8) | 43 µL/min/mg |  |
| CC(C)C[C@H]1C(=O)N[C@@H](COC(C)(C)C)C(=O)N(C)[C@@H](CC(C)C)C(=O)N[C@H](C(=O)N2CCCCC2)Cc2ccc(cc2)CCCCCC(=O)N(C)[C@@H](C)C(=O)N(C)[C@@H](Cc2ccccc2)C(=O)N(C)[C@@H](CC(C)C)C(=O)N[C@@H]([C@@H](C)O)C(=O)N(C)CC(=O)N1C [DP-837] ([NMeA][NMeF][NMeL]T[Sar][NMeL]S(tBu)[NMeL][Phe(4-(CH2)5CO)]-Piperidide; lactam N-9) | 284 µL/min/mg |  |
| CC(C)C[C@@H]1NC(=O)[C@H](CC(C)C)N(C)C(=O)[C@H](CC(C)C)N(C)C(=O)[C@H](Cc2ccccc2)NC(=O)[C@H](Cc2ccccc2)N(C)C(=O)[C@H](CCC(N)=O)NC(=O)[C@H](CC(C)C)N(C)C(=O)[C@H](Cc2ccccc2)NC(=O)[C@H](C)NC(=O)C[C@@H](C(=O)N(C)[C@@H](Cc2ccccc2)C(=O)N[C@@H](C)C(=O)N2CCCCC2)NC1=O [DP-601] (AF[NMeL]Q[NMeF]F[NMeL][NMeL]LD[NMeF]A-Piperidide; lactam N-10) | 21 µL/min/mg |  |
| CC(C)C[C@H]1C(=O)N(C)[C@@H](CC(C)C)C(=O)N[C@@H](C)C(=O)N[C@H](C(=O)N(C)[C@@H](Cc2ccccc2)C(=O)N[C@@H](C)C(=O)N2CCCCC2)CC(=O)N[C@@H](C)C(=O)N[C@@H](Cc2ccccc2)C(=O)N(C)[C@@H](CC(C)C)C(=O)N[C@@H](CC#N)C(=O)N(C)[C@@H](Cc2ccccc2)C(=O)N[C@@H](C)C(=O)N1C [DP-613] (AF[NMeL][Ala(CN)][NMeF]A[NMeL][NMeL]AD[NMeF]A-Piperidide; lactam N-10) | 37 µL/min/mg |  |
| CC[C@H](C)[C@@H]1NC(=O)[C@H](Cc2ccccc2)NC(=O)[C@@H]2CCCN2C(=O)[C@H](CC(C)C)N(C)C(=O)[C@H](Cc2ccccc2)NC(=O)[C@H](CC(C)C)NC(=O)[C@H]([C@@H](C)O)NC(=O)[C@H](C)N(C)C(=O)[C@H](C(C)C)NC(=O)[C@H](C)NC(=O)C[C@@H](C(=O)N2CCCCC2)NC(=O)[C@H](CC(C)C)NC(=O)CN(C)C1=O [DP-21] (AV[NMeA]TLF[NMeL]PFI[Sar]LD-Piperidide; lactam N-13) |  | microsomal CLint (human, microsomes, CL NADPH(+)): 25 µL/min/mg |
| CC[C@H](C)[C@@H]1NC(=O)[C@H](C)NC(=O)C[C@@H](C(=O)N2CCCCC2)NC(=O)[C@H](CC(C)C)N(C)C(=O)[C@H](CC(C)C)N(C)C(=O)[C@H](C(C)C)NC(=O)[C@H](C)NC(=O)[C@H](Cc2ccccc2)N(C)C(=O)[C@H](Cc2ccccc2)N(C)C(=O)[C@H]([C@@H](C)O)NC(=O)[C@H](CC(C)C)N(C)C(=O)[C@@H]2CCCN2C1=O [DP-10] (AIP[NMeL]T[NMeF][NMeF]AV[NMeL][NMeL]D-Piperidide; lactam N-12) |  | microsomal CLint at 1 uM [1]: 14 µL/min/mg |
| CC(C)C[C@H]1C(=O)N[C@@H](COC(C)(C)C)C(=O)N[C@H](C(=O)N2CCCCC2)CCC(=O)N(C)[C@@H](C)C(=O)N(C)[C@@H](C)C(=O)N(C)[C@@H](Cc2ccccc2)C(=O)N(C)[C@@H](CC(C)C)C(=O)N[C@@H]([C@@H](C)O)C(=O)N(C)CC(=O)N1C [Compound P-122, MeAla-MeAla-MePhe-MeLeu-Thr-MeGly-MeLeu-Ser(tBu)-Glu-piperidine] ([NMeA][NMeA][NMeF][NMeL]T[Sar][NMeL]S(tBu)E-Piperidide; lactam N-9) |  | Hepatic microsome CLhint (Human) In the absence of NADPH: 1 ul/min/mg Protein; microsomal CLint at 1 uM (human, microsomes, pH 7.4, Hepatic microsome CLhint (Human) In the presence of NADPH): 11 µL/min/mg |
| CC[C@H](C)[C@@H]1NC(=O)[C@H](Cc2ccccc2)N(C)C(=O)[C@H](CCc2ccccc2)NC(=O)[C@H](C(C)C)N(C)C(=O)[C@H](CC(C)C)N(C)C(=O)[C@H](CC(C)C)NC(=O)[C@@H](C)NC(=O)C[C@@H](C(=O)N2CCCCC2)NC(=O)[C@H]([C@@H](C)O)NC(=O)[C@H](C)NC(=O)[C@H](C)N(C)C1=O [DP-730] ([dA]L[NMeL][NMeV][hPhe][NMeF]I[NMeA]ATD-Piperidide; lactam N-11) | 50 µL/min/mg |  |
| CC[C@H](C)[C@@H]1NC(=O)[C@H](CC(C)C)N(C)C(=O)CN(C)C(=O)[C@H](Cc2ccccc2)NC(=O)[C@H](C(C)C)N(C)C(=O)[C@H](C)N(C)C(=O)[C@H]([C@@H](C)O)NC(=O)[C@H](C)N(C)C(=O)C[C@@H](C(=O)N2CCCCC2)NC(=O)[C@H](C)NC1=O [DP-675] ([NMeA]T[NMeA][NMeV]F[Sar][NMeL]IAD-Piperidide; lactam N-10) | 22 µL/min/mg |  |
